Assay results taken from US5789419A, “4-quinolinone derivative or salt thereof” (SS Pharmaceutical Co., Ltd., priority 1994, dated 1998).

system: endothelium-ablated specimen of rat thoracic aorta; experiment: Effect of inhibiting contraction caused by 30 mM K on endothelium-ablated specimen of rat thoracic aorta; type: cell-based; settings: 10 min, cumulative application at intervals of 10 minutes, 37° C., 10^-4 M papaverine = 100% relaxation, read-out: median inhibitory concentration (IC50)
Method: (Effect of inhibiting contraction caused by 30 mM K on endothelium-ablated specimen of rat thoracic aorta)
A thoracic aorta was enucleated from a rat (weight: 129-492 g) and cut into lengths of 3 mm. Cotton in the form of a paper string was put in a lumen of each of ring specimens, and the inner surface of the ring specimen was rubbed several times with the cotton, thereby ablating an endothelium from the thoracic aorta specimen. This specimen was incubated at 37° C. and suspended in 10 ml of a Krebs-Henseleit solution, into which a mixed gas had been introduced, with a load of 2 g applied thereto. The tension thereof was isometrically recorded in a recorder through an FD transducer and a dynamic strain gage. After at least 60 minutes went on after the suspension, and the sample was stabilized, 10^-7 M noradrenaline was applied several times to the specimen. Under contraction caused by 10^-7 M noradrenaline, 10^-7 M acetylcholine was applied to the specimen. A specimen which manifested no relaxing effect at this time was used in an experiment as an endothelium-ablated specimen. Each of agents (compounds of Compound Numbers shown in Table 20 and Cromakalim) to be tested was cumulatively applied at intervals of 10 minutes from the time 30 mM K^+ had been applied to such a specimen, and the contraction of the specimen had been fixed, thereby calculating a median inhibitory concentration (IC50). Incidentally, 10^-4 M papaverine was applied to confirm 100% relaxing affect. The agents to be tested were dissolved (5×10^-2 M in dimethyl sulfoxide and diluted with purified water before their use.

IC50 [µM] | SMILES
0.0188 | CC(=O)NN1CC(C)(C)C(=O)c2ccc(S(=O)(=O)C(F)(F)F)cc21 [Compound No. 44, 1-Acetoamino-2,3-dihydro-3,3-dimethyl-7-(trifluoromethyl) sulfonyl-4(1H)-quinolinone]
0.0832 | CC(=O)NN1CC(C)(C)C(=O)c2ccc(S(=O)(=O)c3ccccc3)cc21 [Compound No. 53, 1-Acetoamino-2,3-dihydro-3,3-dimethyl-7-phenylsulfonyl-4(1H)-quinolinone]
0.1 | CC(=O)NN1CC(C)(C)C(=O)c2ccc(C(F)(F)F)cc21 [compound 21]
0.0482 | CC(=O)NN1CC(C)(C)C(=O)c2ccc(OC(F)(F)F)cc21 [compound 28]

Continued, compound first:

SMILES | IC50 [µM]
CC1(C)Oc2ccc(C#N)cc2[C@@H](N2CCCC2=O)[C@@H]1O (racemic) [Cromakalim, (±)-trans-6-cyano-2,2-dimethyl-4-(2-oxopyrrolidin-1-yl)-3,4-dihydro-2H-1-benzopyran-3-ol, reference compound] | 0.13
CC1(C)CN(N2CCCC2=O)c2cc(S(=O)(=O)c3ccccc3)ccc2C1=O [Compound No. 63, 2,3-Dihydro-3,3-dimethyl-7-phenylsulfonyl-1-(2-oxopyrrolidin-1-yl)-4(1H)-quinolinone] | 0.0869
CC1(C)CN(NC(=O)c2cccnc2)c2cc(C(F)(F)F)ccc2C1=O [compound 23] | 0.0662
CCC(=O)NN1CC(C)(C)C(=O)c2ccc(OC(F)(F)F)cc21 [compound 29] | 0.104
CC1(C)CN(NC(=O)c2cccnc2)c2cc(OC(F)(F)F)ccc2C1=O [compound 30] | 0.0492
